Laboratory results taken from patent US9766247B2, “Rapid method to analyze ubiquitin-proteasome activity and to screen for ubiquitin-proteasome inhibitor” (KOREA INSTITUTE OF SCIENCE AND TECHNOLOGY, priority 2014, dated 2017).
Residues, ends and D or L forms follow the SMILES beside them. *: point of attachment. Cbz = O=C(OCc1ccccc1)*

System: ubiquitin-proteasome
Experiment: Quantification of GFP-RPN1 fusion protein accumulated by proteasome inhibitor (dual LIF CE system)
Assay type: cell-based, human
Conditions: HEK 293T cells transfected with EGFP-RPN1 and DsRed plasmid vectors; about 0 to about 20 μM inhibitor, two hours; GFP-RPN1 peak height by CE-dual LIF; FIGS. 5a to 5c
Method: To monitor a ubiquitin-proteasome-dependent protein RPN1 (ribophorin I), a plasmid vector enabling to express a fusion protein including a green fluorescent protein (GFP) and RPN1 was prepared. Specifically, to induce rapid lysis of a human RPN1 protein, a wild type RPN1 polynucleotide (SEQ ID NO: 2) encoding a wild type human RPN1 protein (SEQ ID NO: 1) was used to prepare a mutant RPN-I^N299T polynucleotide (SEQ ID NO: 4) encoding a mutant RPN-I^N299T protein (SEQ ID NO: 3). The mutant RPN-I^N299T polynucleotide (SEQ ID NO: 4) was cloned into a pEGFP-C1 plasmid vector (Clontech Laboratories Inc.) to prepare a pEGFP-RPN1^N299T plasmid which enables expression of a fusion protein including a GFP protein and the RPN1^N299T protein.
On the other hand, a plasmid vector expressing a red fluorescent protein (RFP) as a ubiquitin-proteasome-independent protein which is not lysed by a ubiquitin-proteasome was prepared. Specifically, a pDs-Red2-Express-N1 plasmid vector (Clontech Laboratories Inc.) which enables expression of a Discosoma species RFP (DsRed) was prepared.
As host cells, human embryonic kidney (HEK) 293T cells were cultured in a DMEM (Dulbecco's Modified Eagle's Medium) (Gibco/BRL) including 10% (v/v) fetal bovine serum (FBS) and 1% (v/v) penicillin-streptomycin (Gibco/BRL) at a temperature of 37° C. under the atmosphere of 5% CO2. During the culturing, the medium was replaced with new medium every second day. […]
Subsequently, the supernatant which was the cell lysate was obtained as described in Example 1.2. As described in Example 1.3, a capillary electrophoresis was performed with the obtained supernatant under the electrophoresis conditions of 100 mM Tris-CHES and 10 mM SDS (pH 9.0) by using a dual LIF CE system including an uncoated capillary having an inner diameter of 75 μm and a length of 50 cm to quantify the peak height. […]

Compound	amount of the accumulated proteins (relative intensity of the peaks)
CC(C)C[C@@H](C=O)NC(=O)[C@H](CC(C)C)NC(=O)[C@H](CC(C)C)NC(=O)OCc1ccccc1 [MG132] (Cbz-Leu-Leu-Leu-aldehyde)	varied according to the increase of the concentrations
CC(C)C[C@H](NC(=O)[C@H](CCc1ccccc1)NC(=O)CN1CCOCC1)C(=O)N[C@@H](Cc1ccccc1)C(=O)N[C@@H](CC(C)C)C(=O)[C@@]1(C)CO1 [carfilzomib]	varied according to the increase of the concentrations
CC(C)C[C@H](NC(=O)[C@H](Cc1ccccc1)NC(=O)c1cnccn1)B(O)O [bortezomib]	varied according to the increase of the concentrations
